From article PMC8344761 (Journal of Enzyme Inhibition and Medicinal Chemistry, 2021)

What was measured:
A-Raf = molecular target: T1, A-Raf (Homo sapiens, UniProt P10398); test: Raf kinase assay (Kinase HotSpot, Reaction Biology Corp.); type: biochemical; conditions: fixed concentration 1 μM; mean of two independent experiments
T1 sequence (P10398 1-606): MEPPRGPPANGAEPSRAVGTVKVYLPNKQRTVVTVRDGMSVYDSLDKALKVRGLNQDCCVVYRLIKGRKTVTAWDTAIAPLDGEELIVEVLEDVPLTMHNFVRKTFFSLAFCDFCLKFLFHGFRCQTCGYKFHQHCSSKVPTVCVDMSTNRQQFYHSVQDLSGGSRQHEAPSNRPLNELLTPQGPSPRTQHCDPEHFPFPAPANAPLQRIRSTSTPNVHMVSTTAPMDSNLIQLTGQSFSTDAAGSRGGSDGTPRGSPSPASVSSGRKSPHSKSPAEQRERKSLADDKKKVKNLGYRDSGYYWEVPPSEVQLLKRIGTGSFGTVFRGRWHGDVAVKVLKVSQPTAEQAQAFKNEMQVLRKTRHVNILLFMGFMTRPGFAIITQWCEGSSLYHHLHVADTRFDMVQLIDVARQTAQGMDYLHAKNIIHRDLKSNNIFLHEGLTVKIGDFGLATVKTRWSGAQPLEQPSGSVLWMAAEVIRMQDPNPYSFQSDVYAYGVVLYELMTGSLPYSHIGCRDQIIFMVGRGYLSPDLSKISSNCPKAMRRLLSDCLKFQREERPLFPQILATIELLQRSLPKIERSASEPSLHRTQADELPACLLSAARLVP
Experimental: Compounds were delivered into each Raf reaction, followed ∼20 min later by addition of a mixture of ATP and [γ-^33P-ATP] (specific activity approx. 500 cpm/pmol, concentration as required) to a final concentration of 10 µM. […] Then, the reaction was spotted onto a P30 filtermat, and unbound phosphate was removed by washing three times for 5 min in 75 mM phosphoric acid and once in methanol prior to drying and scintillation counting. […] IC50 values and curve fits were obtained using Prism (GraphPad Software, La Jolla, CA).

C-Raf = C-Raf (Homo sapiens, UniProt P04049); test: as above; type: biochemical; conditions: fixed concentration 1 μM; mean of two independent experiments; read-out: Inhibition (%) C-Raf
C-Raf, sequence (P04049 whole entry): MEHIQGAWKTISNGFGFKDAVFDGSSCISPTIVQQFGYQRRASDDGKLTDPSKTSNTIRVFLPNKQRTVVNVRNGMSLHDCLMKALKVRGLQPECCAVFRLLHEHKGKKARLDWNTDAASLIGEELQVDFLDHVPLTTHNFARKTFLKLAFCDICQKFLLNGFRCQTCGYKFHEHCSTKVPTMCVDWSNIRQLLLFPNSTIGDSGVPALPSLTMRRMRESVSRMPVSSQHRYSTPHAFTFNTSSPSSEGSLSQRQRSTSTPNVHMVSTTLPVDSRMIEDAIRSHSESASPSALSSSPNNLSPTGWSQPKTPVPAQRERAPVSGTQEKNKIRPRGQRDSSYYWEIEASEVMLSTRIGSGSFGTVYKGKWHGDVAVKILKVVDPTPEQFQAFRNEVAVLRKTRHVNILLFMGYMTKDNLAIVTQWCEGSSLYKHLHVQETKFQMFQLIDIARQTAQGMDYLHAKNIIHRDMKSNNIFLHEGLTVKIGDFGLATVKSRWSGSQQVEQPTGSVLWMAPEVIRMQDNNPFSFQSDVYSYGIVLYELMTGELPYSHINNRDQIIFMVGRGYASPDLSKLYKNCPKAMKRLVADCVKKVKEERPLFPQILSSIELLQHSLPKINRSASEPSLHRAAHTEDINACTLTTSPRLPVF
Experimental: (§1) Compounds were delivered into each Raf reaction, followed ∼20 min later by addition of a mixture of ATP and [γ-^33P-ATP] (specific activity approx. 500 cpm/pmol, concentration as required) to a final concentration of 10 µM. After incubation for 40 min at 25 °C, the reaction was stopped by the addition of a 3% phosphoric acid solution. Then, the reaction was spotted onto a P30 filtermat, and unbound phosphate was removed by washing three times for 5 min in 75 mM phosphoric acid and once in methanol prior to drying and scintillation counting. […] IC50 values and curve fits were obtained using Prism (GraphPad Software, La Jolla, CA).

B-Raf = B-Raf (Homo sapiens, UniProt P15056); test: as above; type: biochemical; conditions: fixed concentration 1 μM; mean of two independent experiments
B-Raf, sequence (P15056 whole entry): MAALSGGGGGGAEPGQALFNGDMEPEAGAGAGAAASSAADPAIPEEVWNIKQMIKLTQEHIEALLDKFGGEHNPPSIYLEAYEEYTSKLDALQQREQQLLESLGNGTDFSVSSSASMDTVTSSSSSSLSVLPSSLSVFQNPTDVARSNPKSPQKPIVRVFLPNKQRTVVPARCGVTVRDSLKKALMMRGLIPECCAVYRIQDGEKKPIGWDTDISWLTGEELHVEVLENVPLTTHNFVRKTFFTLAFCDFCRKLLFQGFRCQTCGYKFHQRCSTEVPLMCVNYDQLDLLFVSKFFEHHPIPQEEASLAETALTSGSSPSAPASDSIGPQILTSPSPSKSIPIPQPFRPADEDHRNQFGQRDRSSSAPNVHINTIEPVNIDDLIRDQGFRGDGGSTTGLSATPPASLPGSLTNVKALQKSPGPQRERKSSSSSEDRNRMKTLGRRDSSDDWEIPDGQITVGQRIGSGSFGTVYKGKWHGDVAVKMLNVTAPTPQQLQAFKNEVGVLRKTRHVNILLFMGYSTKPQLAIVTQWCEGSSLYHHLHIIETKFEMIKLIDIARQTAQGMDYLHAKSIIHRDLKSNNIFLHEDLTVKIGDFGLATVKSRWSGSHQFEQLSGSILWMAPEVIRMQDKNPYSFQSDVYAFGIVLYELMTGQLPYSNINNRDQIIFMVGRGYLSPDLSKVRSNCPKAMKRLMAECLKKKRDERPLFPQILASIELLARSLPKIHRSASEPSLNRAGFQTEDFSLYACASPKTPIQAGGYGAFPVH
Experimental: as §1

B-Raf (V600E) = B-Raf (V600E) (Homo sapiens, UniProt P15056, V600E); test: as above; type: biochemical; conditions: fixed concentration 1 μM; mean of two independent experiments; B-Raf (V599E)
B-Raf (V600E), sequence (P15056 whole entry V600E): as the sequence (P15056 whole entry) above, with V600E counted along it
Experimental: as §1

| SMILES | melting point [°C] | inhibition at 1 µM (A-Raf) [%] | inhibition at 1 µM (C-Raf) [%] | inhibition at 1 µM (B-Raf) [%] | inhibition at 1 µM (B-Raf (V600E)) [%] |
| --- | --- | --- | --- | --- | --- |
| CNC(=O)c1cc(Oc2c(C)nc(N)c(C)c2C)ccn1 [Compound 3, 4-((6-Amino-2,4,5-trimethylpyridin-3-yl)oxy)-N-methylpicolinamide] | 193 | 17.6 | 0 | -15.4 | 9.4 |
| CNC(=O)c1cc(Oc2c(C)nc(NC(=O)Nc3ccc(Cl)cc3)c(C)c2C)ccn1 [Compound 5, 4-((6–(3-(4-Chlorophenyl)ureido)-2,4,5-trimethylpyridin-3-yl)oxy)-N-methylpicolinamide] | 248 | 70.2 | 83.1 | 63 | 69.4 |
| CNC(=O)c1cc(Oc2c(C)nc(NC(=O)Nc3ccccc3)c(C)c2C)ccn1 [Compound 7, N-Methyl-4-((2,4,5-trimethyl-6-(3-phenylureido)pyridin-3-yl)oxy)picolinamide] | 229 | 49.3 | 46.4 | 24.8 | 48 |
| CNC(=O)c1cc(Oc2c(C)nc(NC(=O)Nc3ccc(F)cc3)c(C)c2C)ccn1 [Compound 8, 4-((6-(3-(4-Fluorophenyl)ureido)-2,4,5-trimethylpyridin-3-yl)oxy)-N-methylpicolinamide] | 253 | 78.4 | 78.2 | 61.5 | 77.9 |
| CNC(=O)c1cc(Oc2c(C)nc(NC(=O)Nc3ccc(Br)cc3)c(C)c2C)ccn1 [Compound 9, 4-((6–(3-(4-Bromophenyl)ureido)-2,4,5-trimethylpyridin-3-yl)oxy)-N-methylpicolinamide] | 268 | 49.9 | 74.6 | 40.8 | 58.9 |
| CNC(=O)c1cc(Oc2c(C)nc(NC(=O)Nc3ccc([N+](=O)[O-])cc3)c(C)c2C)ccn1 [Compound 10, N-Methyl-4-((2,4,5-trimethyl-6-(3-(4-nitrophenyl)ureido)pyridin-3-yl)oxy)picolinamide] | 262 | 61.5 | 83.1 | 60.4 | 74.7 |
| CNC(=O)c1cc(Oc2c(C)nc(NC(=O)Nc3ccc(C(F)(F)F)cc3)c(C)c2C)ccn1 [Compound 11, N-Methyl-4-((2,4,5-trimethyl-6-(3-(4-(trifluoromethyl)phenyl)ureido)pyridin-3-yl)oxy)picolinamide] | 254 | 66.3 | 90.4 | 66.8 | 71.9 |
| CNC(=O)c1cc(Oc2c(C)nc(NC(=O)Nc3ccc(OC(F)(F)F)cc3)c(C)c2C)ccn1 [Compound 12, N-Methyl-4-((2,4,5-trimethyl-6-(3-(4-(trifluoromethoxy)phenyl)ureido)pyridin-3-yl)oxy)picolinamide] | 185 | 12.4 | 37.5 | 6.6 | 22.2 |
| CNC(=O)c1cc(Oc2c(C)nc(NC(=O)Nc3ccc(OC)cc3)c(C)c2C)ccn1 [Compound 13, 4-((6-(3-(4-Methoxyphenyl)ureido)-2,4,5-trimethylpyridin-3-yl)oxy)-N-methylpicolinamide] | 258 | 14.7 | 55.9 | 5.1 | 33.4 |
| CNC(=O)c1cc(Oc2c(C)nc(NC(=O)Nc3ccc(C)cc3)c(C)c2C)ccn1 [Compound 14, N-Methyl-4-((2,4,5-trimethyl-6-(3-(p-tolyl)ureido)pyridin-3-yl)oxy)picolinamide] | 247 | 51 | 73.6 | 44.5 | 62.2 |
| CNC(=O)c1cc(Oc2c(C)nc(NC(=O)Nc3ccc(C(C)C)cc3)c(C)c2C)ccn1 [Compound 15, 4-((6-(3-(4-Isopropylphenyl)ureido)-2,4,5-trimethylpyridin-3-yl)oxy)-N-methylpicolinamide] | 188 | 33.6 | 76.1 | 43.2 | 39 |
| CNC(=O)c1cc(Oc2c(C)nc(NC(=O)Nc3c(C)cccc3C(C)(C)C)c(C)c2C)ccn1 [Compound 16, 4-((6-(3-(2-(Tert-Butyl)-6-methylphenyl)ureido)-2,4,5-trimethylpyridin-3-yl)oxy)-N-methylpicolinamide] | 206 | 8.6 | -6.4 | -7.1 | 7.1 |
| CNC(=O)c1cc(Oc2c(C)nc(NC(=O)Nc3cccc4ccccc34)c(C)c2C)ccn1 [Compound 17, N-Methyl-4-((2,4,5-trimethyl-6-(3-(naphthalen-1-yl)ureido)pyridin-3-yl)oxy)picolinamide] | 266 | 10.2 | 7.1 | -6.8 | 10.1 |
| CNC(=O)c1cc(Oc2c(C)nc(NC(=O)NCc3ccccc3)c(C)c2C)ccn1 [Compound 18, 4-((6-(3-Benzylureido)-2,4,5-trimethylpyridin-3-yl)oxy)-N-methylpicolinamide] | 195 | 7.8 |  | -14.5 | 13.3 |
| CCCNC(=O)Nc1nc(C)c(Oc2ccnc(C(=O)NC)c2)c(C)c1C [Compound 19, N-Methyl-4-((2,4,5-trimethyl-6-(3-propylureido)pyridin-3-yl)oxy)picolinamide] | 207 | -5.1 | 1.7 | -9.2 |  |
| CNC(=O)c1cc(Oc2c(C)nc(NC(=O)NC3CC3)c(C)c2C)ccn1 [Compound 20, 4-((6-(3-Cyclopropylureido)-2,4,5-trimethylpyridin-3-yl)oxy)-N-methylpicolinamide] | 192 | 16.4 | -0.8 | -10 | 8.9 |
| CNC(=O)c1cc(Oc2c(C)nc(NC(=O)NC(=O)c3ccccc3)c(C)c2C)ccn1 [Compound 21, 4-((6-(3-Benzoylureido)-2,4,5-trimethylpyridin-3-yl)oxy)-N-methylpicolinamide] | 177 | 18.9 | 35.2 | 8.6 | 26.7 |
| CNC(=O)c1cc(Oc2c(C)nc(NC(=O)NS(=O)(=O)c3ccc(C)cc3)c(C)c2C)ccn1 [Compound 22, N-Methyl-4-((2,4,5-trimethyl-6-(3-tosylureido)pyridin-3-yl)oxy)picolinamide] | 187 | 9.4 | 5.7 |  | 2.6 |
| CNC(=O)c1cc(Oc2c(C)nc(NC(=O)Nc3ccc(N)cc3)c(C)c2C)ccn1 [Compound 23, 4-((6-(3-(4-Aminophenyl)ureido)-2,4,5-trimethylpyridin-3-yl)oxy)-N-methylpicolinamide] | 205 | 11 | 6.7 | 0.3 | 11.6 |
| Cc1nc(NC(=O)Nc2ccc(Cl)c(C(F)(F)F)c2)c(C)c(C)c1OCc1ccccc1 [Compound 24, 1-(5-(Benzyloxy)-3,4,6-trimethylpyridin-2-yl)-3-(4-chloro-3-(trifluoromethyl)phenyl)urea] | 206 | 11.9 | -8.3 | -19.3 | 4.4 |
| Cc1nc(NC(=O)Nc2ccc(Cl)c(C(F)(F)F)c2)c(C)c(C)c1O [Compound 25, 1-(4-Chloro-3-(trifluoromethyl)phenyl)-3-(5-hydroxy-3,4,6-trimethylpyridin-2-yl)urea] | 242 | 7.9 | -7.7 |  | 8.7 |
